Assay results from paper PMC9116245, “New 1,2,3-triazole linked ciprofloxacin-chalcones induce DNA damage by inhibiting human topoisomerase I& II and tubulin polymerization” (Journal of Enzyme Inhibition and Medicinal Chemistry, 2022).

Legend:
HCT-116 = assay: NCI one-dose screen; type: cell-based, human; details: HCT-116, 10 µM; for activity at 10 µM: Homo sapiens, read-out: Growth Percent
Experimental: (§1) For screening of anticancer properties, all the developed compounds were chosen by the (NCI) for in-vitro antitumor evaluation. The assay was carried out using 59 human cancer cell lines obtained from nine tumour subpanels (breast, ovarian, melanoma, leukaemia, renal, CNS, lung, prostate, and colon cancer cell lines). Compounds were assessed at a 10 µM concentration. […] Also, hybrids 4a, 4b, 4e, 4i and 4j produced significant anti-proliferative effect in several cancer cells, particularly in leukaemia (RPMI-8226) and colon (HCT116) cells with growth percent of 47.87, −14.59, −24.56, −24.42, −15.84, −9.74, −53.36, −10.26, −31.29, and −39.51%, respectively.
(§2) The method description for NCI anticancer screening is provided in detail in the standard NCI-60 testing protocol.

RPMI-8226 = assay: NCI one-dose screen; type: cell-based, human; details: RPMI-8226, 10 µM; for activity at 10 µM: Homo sapiens, read-out: Growth Percent
Experimental: as §1, §2

SF-539 = assay: NCI one-dose screen; type: cell-based; details: Homo sapiens; SF-539, 10 µM; read-out: Growth Percent
Experimental: as §1, §2

SF-295 = assay: NCI one-dose screen; type: cell-based; details: Homo sapiens; SF-295, 10 µM; read-out: Growth Percent
Experimental: as §1, §2

SNB-75 = assay: NCI one-dose screen; type: cell-based; details: Homo sapiens; SNB-75, 10 µM; read-out: Growth Percent
Experimental: as §1, §2

OVCAR-5 = assay: NCI one-dose screen; type: cell-based; details: Homo sapiens; OVCAR-5, 10 µM; read-out: Growth Percent
Experimental: as §1, §2

UACC-257 = assay: NCI one-dose screen; type: cell-based; details: Homo sapiens; UACC-257, 10 µM; read-out: Growth Percent
Experimental: as §1, §2

NCI/ADR-RES = assay: NCI one-dose screen; type: cell-based; details: Homo sapiens, read-out: Growth Percent
Experimental: as §1, §2

SK-MEL-5 = assay: NCI one-dose screen; type: cell-based; details: Homo sapiens; SK-MEL-5, 10 µM; read-out: Growth Percent
Experimental: as §1, §2

SNB-19 = assay: NCI one-dose screen; type: cell-based; details: Homo sapiens; SNB-19, 10 µM; read-out: Growth Percent
Experimental: as §1, §2

OVCAR-4 = assay: NCI one-dose screen; type: cell-based; details: Homo sapiens; OVCAR-4, 10 µM; read-out: Growth Percent
Experimental: as §1, §2

HOP-92 = assay: NCI one-dose screen; type: cell-based; details: Homo sapiens; HOP-92, 10 µM; read-out: Growth Percent
Experimental: as §1, §2

EKVX = assay: NCI one-dose screen; type: cell-based; details: Homo sapiens, read-out: Growth Percent
Experimental: as §1, §2

SN12C = assay: NCI one-dose screen; type: cell-based; details: Homo sapiens, read-out: Growth Percent
Experimental: as §1, §2

TK-10 = assay: NCI one-dose screen; type: cell-based; details: Homo sapiens; TK-10, 10 µM; read-out: Growth Percent
Experimental: as §1, §2

MOLT-4 = assay: NCI one-dose screen; type: cell-based; details: Homo sapiens; MOLT-4, 10 µM; read-out: Growth Percent
Experimental: as §1, §2

OVCAR-8 = assay: NCI one-dose screen; type: cell-based; details: Homo sapiens; OVCAR-8, 10 µM; read-out: Growth Percent
Experimental: as §1, §2

OVCAR-3 = assay: NCI one-dose screen; type: cell-based; details: Homo sapiens; OVCAR-3, 10 µM; read-out: Growth Percent
Experimental: as §1, §2

HL-60(TB) = assay: NCI one-dose screen; type: cell-based; details: Homo sapiens, read-out: Growth Percent
Experimental: as §1, §2

HOP-62 = assay: NCI one-dose screen; type: cell-based; details: Homo sapiens; HOP-62, 10 µM; read-out: Growth Percent
Experimental: as §1, §2

CAKI-1 = assay: NCI one-dose screen; type: cell-based; details: Homo sapiens; CAKI-1, 10 µM; read-out: Growth Percent
Experimental: as §1, §2

MCF7 = assay: NCI one-dose screen; type: cell-based; details: Homo sapiens; MCF7, 10 µM; read-out: Growth Percent
Experimental: as §1, §2

SW-620 = assay: NCI one-dose screen; type: cell-based; details: Homo sapiens; SW-620, 10 µM; read-out: Growth Percent
Experimental: as §1, §2

RXF 393 = assay: NCI one-dose screen; type: cell-based; details: Homo sapiens; RXF 393, 10 µM; read-out: Growth Percent
Experimental: as §1, §2

SK-MEL-2 = assay: NCI one-dose screen; type: cell-based; details: Homo sapiens; SK-MEL-2, 10 µM; read-out: Growth Percent
Experimental: as §1, §2

HT29 = assay: NCI one-dose screen; type: cell-based; details: Homo sapiens, HT-29; HT29, 10 µM; read-out: Growth Percent
Experimental: as §1, §2

SR = assay: NCI one-dose screen; type: cell-based; details: Homo sapiens, read-out: Growth Percent
Experimental: as §1, §2

ACHN = assay: NCI one-dose screen; type: cell-based; details: Homo sapiens, read-out: Growth Percent
Experimental: as §1, §2

DU-145 = assay: NCI one-dose screen; type: cell-based; details: Homo sapiens; DU-145, 10 µM; read-out: Growth Percent
Experimental: as §1, §2

KM12 = assay: NCI one-dose screen; type: cell-based; details: Homo sapiens; KM12, 10 µM; read-out: Growth Percent
Experimental: as §1, §2

SK-OV-3 = assay: NCI one-dose screen; type: cell-based; details: Homo sapiens; SK-OV-3, 10 µM; read-out: Growth Percent
Experimental: as §1, §2

LOX IMVI = assay: NCI one-dose screen; type: cell-based; details: Homo sapiens, read-out: Growth Percent
Experimental: as §1, §2

A498 = assay: NCI one-dose screen; type: cell-based; details: Homo sapiens; A498, 10 µM; read-out: Growth Percent
Experimental: as §1, §2

HT-29 = assay: MTT assay; type: cell-based; details: Homo sapiens; HT-29, MTT assay, 24 h incubation
Summary of the method: (§3)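 Colorectal lines treated with 1, 5, 10, 20, 40, 80 or 100 µM compound, or DMSO vehicle. Proliferation read by MTT reduction.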

HCT116 = assay: MTT assay; type: cell-based; details: Homo sapiens, HCT-116, 24 h incubation
Summary of the method: as §3

Caco-2 = assay: MTT assay; type: cell-based; details: Homo sapiens; Caco-2, MTT assay, 24 h incubation
Summary of the method: as §3

| Structure (SMILES) | activity at 10 µM (HCT-116) [%] | activity at 10 µM (RPMI-8226) [%] | activity at 10 µM (SF-539) [%] | activity at 10 µM (SF-295) [%] | activity at 10 µM (SNB-75) [%] | activity at 10 µM (OVCAR-5) [%] | activity at 10 µM (UACC-257) [%] | activity at 10 µM (NCI/ADR-RES) [%] | activity at 10 µM (SK-MEL-5) [%] | activity at 10 µM (SNB-19) [%] | activity at 10 µM (OVCAR-4) [%] | activity at 10 µM (HOP-92) [%] | activity at 10 µM (EKVX) [%] | activity at 10 µM (SN12C) [%] | activity at 10 µM (TK-10) [%] | activity at 10 µM (MOLT-4) [%] | activity at 10 µM (OVCAR-8) [%] | activity at 10 µM (OVCAR-3) [%] | activity at 10 µM (HL-60(TB)) [%] | activity at 10 µM (HOP-62) [%] | also measured |
| --- | --- | --- | --- | --- | --- | --- | --- | --- | --- | --- | --- | --- | --- | --- | --- | --- | --- | --- | --- | --- | --- |
| O=C(/C=C/c1ccc(F)cc1)c1ccc(-n2cc(CN3CCN(c4cc5c(cc4F)c(=O)c(C(=O)O)cn5C4CC4)CC3)nn2)cc1 [Compound 4e, (E)-1-cyclopropyl-6-fluoro-7–(4-((1–(4-(3-(4-fluorophenyl)acryloyl)phenyl)-1H-1,2,3-triazol-4-yl)methyl)piperazin-1-yl)-4-oxo-1,4-dihydroquinoline-3-carboxylic acid] | -10.3 | -24.6 | 27.9 | 81.2 | 68.1 | 84.2 | 88.3 | 92.1 | 79 | 31.6 | 93.1 | 50.3 | 87.5 | 8.77 | 85.2 | 31.8 | 23.3 | 46.6 | 84.6 | 67.3 | Growth Percent (HCT-116): -10.26%; Growth Percent (RPMI-8226): -24.56%; activity at 10 µM (CAKI-1): 36.9%; activity at 10 µM (MCF7): 24.2%; activity at 10 µM (SW-620): 43.2%; activity at 10 µM (RXF 393): 45%; activity at 10 µM (SK-MEL-2): 89%; activity at 10 µM (HT29): 28%; activity at 10 µM (SR): 7.11%; activity at 10 µM (ACHN): 88.5%; activity at 10 µM (DU-145): 51.6%; activity at 10 µM (KM12): 32.9%; activity at 10 µM (SK-OV-3): 71.6%; activity at 10 µM (LOX IMVI): 20.3%; activity at 10 µM (A498): 61.1%; IC50 (HT-29): 8.67 ± 2.94 µM; IC50 (HCT116): 4.32 ± 0.98 µM; IC50 (Caco-2): 4.19 ± 1.13 µM |
| COc1ccc(/C=C/C(=O)c2ccc(-n3cc(CN4CCN(c5cc6c(cc5F)c(=O)c(C(=O)O)cn6C5CC5)CC4)nn3)cc2)cc1OC [Compound 4i, (E)-1-cyclopropyl-7-(4-((1-(4-(3–(3,4-dimethoxyphenyl)acryloyl)phenyl)-1H-1,2,3-triazol-4-yl)methyl)piperazin-1-yl)-6-fluoro-4-oxo-1,4-dihydroquinoline-3-carboxylic acid] | -31.3 | -24.4 | 50.8 | 94.9 | 58.3 | 92.1 | 78.7 | 90.7 | 69 | 67.7 | 88 | 66.5 | 96.6 | 32.6 | 104 | 64.2 | 67.4 | 39.3 | 85.9 | 75.6 | Growth Percent (HCT-116): -31.29%; Growth Percent (RPMI-8226): -24.42%; activity at 10 µM (CAKI-1): 67.8%; activity at 10 µM (MCF7): 13.2%; activity at 10 µM (SW-620): 32.8%; activity at 10 µM (RXF 393): 64.2%; activity at 10 µM (SK-MEL-2): 97%; activity at 10 µM (HT29): 29.6%; activity at 10 µM (SR): -2.25%; activity at 10 µM (ACHN): 85%; activity at 10 µM (DU-145): 83.2%; activity at 10 µM (KM12): 42.6%; activity at 10 µM (SK-OV-3): 76.9%; activity at 10 µM (LOX IMVI): 27.9%; activity at 10 µM (A498): 68.2%; IC50 (HT-29): 18.6 ± 3.19 µM; IC50 (HCT116): 4.87 ± 0.78 µM; IC50 (Caco-2): 11.3 ± 2.39 µM |
| CN(C)c1ccc(/C=C/C(=O)c2ccc(-n3cc(CN4CCN(c5cc6c(cc5F)c(=O)c(C(=O)O)cn6C5CC5)CC4)nn3)cc2)cc1 [Compound 4h, (E)-1-cyclopropyl-7–(4-((1–(4-(3-(4-(dimethylamino)phenyl)acryloyl)phenyl)-1H-1,2,3-triazol-4-yl)methyl)piperazin-1-yl)-6-fluoro-4-oxo-1,4-dihydroquinoline-3-carboxylic acid] | 8.04 | 44.3 | 73.6 | 86.9 | 70.8 | 109 | 101 | 103 | 86.2 | 86.4 | 94.8 | 76.2 | 96 | 67.7 | 104 | 86 | 62.5 | 96 | 98.8 | 81.3 | activity at 10 µM (CAKI-1): 69.8%; activity at 10 µM (MCF7): 59.2%; activity at 10 µM (SW-620): 98.5%; activity at 10 µM (RXF 393): 70.9%; activity at 10 µM (SK-MEL-2): 95.5%; activity at 10 µM (HT29): 98.9%; activity at 10 µM (SR): 63.2%; activity at 10 µM (ACHN): 89.8%; activity at 10 µM (DU-145): 96.3%; activity at 10 µM (KM12): 84.1%; activity at 10 µM (SK-OV-3): 84.7%; activity at 10 µM (LOX IMVI): 56.9%; activity at 10 µM (A498): 64.5%; IC50 (HT-29): 21.7 ± 2.74 µM; IC50 (HCT116): 5.09 ± 2.74 µM; IC50 (Caco-2): 6.39 ± 1.41 µM |
